This is an account of results in paper PMC12256496, “An advancement in developmental and reproductive toxicity (DART) risk assessment: evaluation of a bioactivity and exposure-based NAM toolbox” (Frontiers in Toxicology, 2025).

Read-outs that look alike come from different tables or passages of the source. Peptide text beside a SMILES is read from it. Some results are limits rather than exact numbers.

One data set deals with thyroid peroxidase (TPO). The experiment in a line: IPP: thyroid peroxidase (TPO) binding. To be noted: low-risk exposure scenario. From the text: In vitro pharmacological profiling is used to measure specific and high affinity non-covalent binding interactions between chemicals of interest and various targets with known safety liabilities. These targets include G protein coupled receptors (GPCRs), nuclear hormone receptors (NHRs), ion channels and enzymes. For this evaluation we included 72 targets of interest a full list of which is available in Supplementary Data Sheet 5, across a range of radioligand binding, enzymatic and protein-protein interaction assays run in binding mode only.
The process for deriving a PoD for each of the 72 targets consisted of a two-step method that has been widely adopted when conducting in vitro pharmacological profiling experiments ([Brennan et al., 2024]). […] Targets showing an inhibition or stimulation greater than 50% of a maximal response produced by a reference compound are followed up in a second phase which includes an eight-point concentration response (in two replicates). […] EC50 values (concentration producing a half-maximal response) and IC50 values (concentration causing a half-maximal inhibition of the control agonist response) were determined by the Bayesian probabilistic model of the concentration-response curves and the Hill equation as per ([Labelle et al., 2019]). […] Calculated IC50s were taken forwards as the IPP PoDs ([Middleton et al., 2022]). […]

For data set [1] the following is noted: cited from earlier work.
The conditions of data set [2]: cited from earlier work. The source holds these as a separate data set.
Data set [3] in a line: renal clearance, Fup*GFR (PBK parameter). The settings on record: method Fup*GFR.
Data set [4] deals with developmental or reproductive toxicity in animal or human. The settings on record: cited from earlier work.
Data set [5] has as its system human developmental and reproductive toxicity. The settings on record: ref Supplementary Data Sheet 1, cited from earlier work.
The nature of data set [6]: hepatic intrinsic clearance, CLint (PBK parameter). Format: in vitro ADME.
For data set [7] the following is noted: cited from earlier work. This is another data set of the same source.
The conditions of data set [8]: human.
Data set [9] in a line: Human in vivo PK data: concentration-dose ratio (CDR) and toxicokinetic variability factor (TKVF).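 Also: Literature-pooled human in vivo PK data, plasma, serum or cord blood concentrations per daily dose, weighted by study population size across non-pregnant, pregnant and fetal groups.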 Set-up: 95% percentile (Conc-dose-ratio): unit not given here.
The subject of another data set is rats. The settings on record: ref Supplementary Data Sheet 1, cited from earlier work.
In the next data set the test system is rabbits. Further details: method as in Supplementary Data Sheet 1. The settings on record: ref Supplementary Data Sheet 1, cited from earlier work.
In another data set the test system is mice. Further details: method as in Supplementary Data Sheet 1. The settings on record: ref Supplementary Data Sheet 1, cited from earlier work.
Data set [10] relates to human induced pluripotent stem cells (hiPSCs). The experiment in a line: ReproTracker (cardiomyocyte, hepatocyte-like and neuronal differentiation). Type of data set: cell-based. To be noted: Figure 8B. The source says: The ReproTracker assay assesses chemical perturbation of early embryonic development by evaluating key events of cardiomyocyte, hepatocyte-like (HLC) and neuronal cell differentiation using human induced pluripotent stem cells (hiPSCs). The ReproTracker protocol is described in ([Jamalpoor et al., 2022]; [Moreau et al., 2023]) and was followed introducing a few modifications to allow for concentration response analysis. […] Lineage specific differentiation was then investigated by assessment of gene expression patterns of cell-specific biomarkers, induced cytotoxicity (AlamarBlue cell viability assay) and by morphological profiling. Gene biomarkers quantified by multiplex qRT-PCR included BMP4 and MYH6 for cardiomyocytes, FOXA2 and AFP for hepatocyte-like cells, PAX6 and NESTIN for neural rosette lineage. […] Saccharin was used as a negative control substance for all 3 lineages. For dose dependent qRT-PCR analysis quality control filtered Ct values were normalised using an adaptation of the Pfaffl ([Pfaffl, 2001]) method to calculate ΔCt values with respect to biomarker and housekeeping gene amplification efficiencies. […] In addition, Alamar blue read outs were taken from the differentiating cells at day 7 and the end of each differentiation to measure cell viability in a dose dependent way. The AlamarBlue readout was normalised and transformed using a Bayesian hierarchical approach The Bayesian model assumes measurement between rows on the treatment plates are correlated but allows for differences in average sample response between rows. […] The final cell viability PODs were those at time point end (day 14 for cardiomyocytes, day 21 for HCLs and day 13 for neural) and had CDS above or equal to 0.5. Both the gene biomarker PODs and cell viability/cytotoxicity PODs for each tested lineage are considered for BER calculation.

For data set [11], the system named is human induced pluripotent stem cell (hiPSC). The experiment in a line: devTOX quickPredict (ornithine/cystine ratio, cell viability). Type of data set: cell-based. To be noted: Figure 8B. As for the experimental part:
devTOX quickPredict is a human induced pluripotent stem cell (hiPSC) -based assay that predicts the concentration at which a compound may elicit developmental toxicity. […] Assays were performed as described in [Palmer et al. (2013)] with modifications. Briefly undifferentiated hiPSCs are exposed to the compound for 48 h, with media and test article replacement every 24 h. Ornithine and […] concentrations were measured from the final 24-h treatment using Ultra-Performance Liquid Chromatography-High Resolution Mass Spectrometry (UPLC-HRMS). Cell viability was assessed after sample collection using the CellTiter-Fluor Cell Viability Assay (Promega). Dose-response analysis for the o/c ratio, cell viability, ornithine response and cystine response were performed with GraphPad Prism (version 9.1 or newer, GraphPad Software). Each data set was fit with a nonlinear model. The standard model used for analysis is a four-parameter log-logistic nonlinear model. However, the Akaike information criterion (GraphPad Prism) was used to determine if an asymmetric (five-parameter) or multiphasic nonlinear model was a better fit for the data than the four-parameter model. The developmental toxicity potential (dTP, o/c ratio) and toxicity potential (TP, cell viability) concentrations were predicted from the respective dose-response curves using the hiPSCs cell developmental toxicity threshold (dTT, 0.85).

The mark [12] stands for this setting: evidence of developmental or reproductive toxicity in animal or human, irrespective of exposure/dose, ref Supplementary Data Sheet 1.
Setting [13] is: Fetus population, TKVF95 = p95 / weighted mean concentration-dose ratio.
The mark [14] stands for this setting: Non-Pregnant population, TKVF95 = p95 / weighted mean concentration-dose ratio.
Where [15] appears, read: Pregnant population, TKVF95 = p95 / weighted mean concentration-dose ratio.
[16] abbreviates: Non-Pregnant, combined (oral, IV).

Broadly, the Aqueous Solubility is the concentration that dissolves in the medium under given conditions. Turning to `Cc1c(O)cccc1O` [2-Methylresorcinol], the “BER from thyroid peroxidase (TPO) binding” value in the data set with thyroid peroxidase (TPO) is recorded as less than 1. In addition, the “Aqueous Solubility” value in data set [1] (Solubility pH 4.91, ref [7]) is recorded as 263 mg/mL. Also, in data set [2] (existent consumer risk assessment for the cosmetic use scenario, ref SCCS / SCCP / SCCNFP), the MoS entry is “Used safely in cosmetic products. Existent consumer risk assessment from the SCCS. MoS >4000”. Besides, in [3], the “Renal Clearance” value came out at 4.792 L/h. Moreover, in data set [4] (setting [12]), the “DART Hazard Call” value is given as “Non Toxic”. For the same compound, the “Exposure risk (DART risk classification)” value in data set [5] (Cosmetic, […] in hair colourant, dermal) is listed as “Low Risk”.

`COC(=O)[C@H](Cc1ccccc1)NC(=O)[C@@H](N)CC(=O)O` [Aspartame] (H-Asp-Phe-OMe): in data set [6] (scaled from [6]), the “Intrinsic Liver Clearance” value was found to be 400.2 L/h. In addition, in data set [1] (Solubility pH 2.2, ref [4]), the “Aqueous Solubility” value was 20 mg/mL. Besides, the ADI result in data set [2] (ref FSCJ, EFSA, SCF, JMPR as named in the cell) is “ADI set by EFSA (40 mg/kg/day)”. Besides, the “Renal Clearance” value in [3] came out at 6.049 L/h. Also, in data set [7] (ref [6]), the Fup is 83.8%. The “Exposure risk (DART risk classification)” value in data set [5] (Dietary, 2,400 mg/daily, oral) was “Low Risk”.

`CCOC(=O)c1ccccc1C(=O)OCC` [Diethyl phthalate]: in [6], the “Intrinsic Liver Clearance” value was found to be 596.6 L/h. The Fup in data set [7] (ref [19]) is recorded as 19%. Also, the “Renal Clearance” value in [8] was determined as 1.371 L/h.

As to `CN(CCOc1ccc(CC2SC(=O)NC2=O)cc1)c1ccccn1` (centres unmarked) [Rosiglitazone], the TKVF in [9] (female, human, in vivo) is given as 1.71; in [9] (female, human, in vivo, po), 1.71; in data set [9] (human, in vivo), 4.34; in [9] (human, in vivo, po), 4.34. Moreover, the “no-effect dose for effects on the placenta, embryo/fetus and offspring” value in the data set on rats (rats) is 0.2 mg/kg/day; in the data set with rabbits (rabbits), 15 mg/kg/day.

Take `O=C1CN(/N=C/c2ccc([N+](=O)[O-])o2)C(=O)N1` [Nitrofurantoin]: in [9] (female, human, in vivo), the “CDR fold difference to non-pregnant” value stood at 1.29, the “CDR fold difference to pregnant” value came out at 1.00 and the TKVF is 5.73. Besides, the “CDR fold difference to pregnant” value in data set [9] (human, in vivo) stood at 1.74. Also, in [9] (human, in vivo, po), the “95% percentile (Conc-dose-ratio)” value is 0.11, the “Fold Difference to non-pregnant” value came out at 1.00, the “Mean Conc-dose -ratio” value is recorded as 0.033 uM/(mg/day] and the TKVF is recorded as 3.36. Also, in data set [4] (setting [12]), the “DART Hazard Call” value is reported as “Uncertain”. In addition, the “Exposure risk (DART risk classification)” value in [5] (Pharmaceutical, 200 mg/daily, oral) is recorded as “High Risk”. In the data set on mice (based on mg/kg administered to the dam), the “multiple of human dose with growth retardation and low incidence of minor and common malformations” value is 68 times. Moreover, in the data set with mice, the “multiple of human dose at which fetal malformations were not observed” value is on record as 25 times.

Consider `CN(C)C(=N)N=C(N)N` [Metformin], for which, in [9] (female, human, in vivo), the “CDR fold difference to non-pregnant” value is reported as 0.73, the “CDR fold difference to pregnant” value is reported as 1.00 and the TKVF was 2.75. Moreover, in [9] (female, human, in vivo, po), the “95% percentile (Conc-dose-ratio)” value was 0.0213, the “Fold Difference to non-pregnant” value stood at 0.73, the “Fold Difference to pregnant” value is given as 1.00 and the “Mean Conc-dose -ratio” value is listed as 0.008 uM/(mg/day]. Moreover, the TKVF in data set [9] (female, human, in vivo, po) is recorded as 2.75. In addition, the “CDR fold difference to pregnant” value in data set [9] (human, in vivo) is 0.56. Moreover, the “Fold Difference to pregnant” value in data set [9] (human, in vivo, po) worked out at 0.56. Further, in the data set on rats (rats), the “highest dose not teratogenic” value was 600 mg/kg/day. In addition, the “DART Hazard Call” value in data set [4] (setting [12]) is “Non Toxic”. Moreover, the “highest dose not teratogenic” value in the data set on rabbits (rabbits) is on record as 600 mg/kg/day. In data set [5] (Pharmaceutical, 2,000 mg/daily, oral), the “Exposure risk (DART risk classification)” value is listed as “Low Risk”.

Regarding `CCN(CC)CCNC(=O)c1cc(Cl)c(N)cc1OC` [Metoclopramide], the TKVF in data set [9] (setting [13]) is given as 1.97; in data set [9] (Foetus, IV), 1.97; in data set [9] (setting [14]), 2.85; in data set [9] (Non-Pregnant, combined (oral+IV)), 2.85; in data set [9] (setting [15]) it was 2.71; in [9] (Pregnant, IV) it was 2.71. For the same compound, the “exposure without adverse developmental effects, multiple of maximum recommended human dose” value in the data set with rats (oral, pregnant rats) was approximately 6 times; in the data set with rabbits (oral, pregnant rabbits), approximately 12 times. For the same compound, the “DART Hazard Call” value in data set [4] is reported as “Toxic”.

Take `CCCC(CCC)C(=O)O` [Valproic acid (VPA), Valproic acid]: the “CDR fold difference to non-pregnant” value in data set [9] (Fetus population) worked out at 0.78; in [9] (Non-Pregnant population (reference)), 1.00; in data set [9] (Pregnant population), 0.69. Further, the “CDR fold difference to pregnant” value in [9] (Fetus population) amounted to 1.13; in data set [9] (Pregnant population (reference)), 1.00. The TKVF in [9] (setting [13]) was 1.52; in data set [9] (Foetus, combined (oral, IV)), 1.52; in [9] (setting [14]), 1.62; in [9] (setting [16]), 1.62; in data set [9] (setting [15]) it was 1.85; in data set [9] (Pregnant, combined (oral, IV)), 1.85. Further, the “95% percentile (Conc-dose-ratio)” value in data set [9] (Foetus, combined (oral, IV)) was found to be 0.52; in data set [9] (setting [16]), 0.71; in data set [9] (Pregnant, combined (oral, IV)), 0.56. For the same compound, the “Fold Difference to non-pregnant” value in [9] (Foetus, combined (oral, IV)) turned out to be 0.78; in data set [9] (setting [16]) it was 1.00; in data set [9] (Pregnant, combined (oral, IV)), 0.69. The “Fold Difference to pregnant” value came to 1.13 in data set [9] (Foetus, combined (oral, IV)) and 1.00 in data set [9] (Pregnant, combined (oral, IV)). Also, the “Mean Conc-dose -ratio” value in [9] (Foetus, combined (oral, IV)) was 0.34 uM/(mg/day]; in data set [9] (setting [16]), 0.44 uM/(mg/day]; in [9] (Pregnant, combined (oral, IV)), 0.30 uM/(mg/day]. For the same compound, the “BER from ReproTracker” value in data set [10] was less than 1. In data set [11], the “BER from devTOX quickPredict” value is given as less than 1. Besides, the “DART Hazard Call” value in data set [4] (setting [12]) was “Toxic”. The “Exposure risk (DART risk classification)” value is reported as “High Risk” in data set [5] (Pharmaceutical, 600 mg/daily, oral) and “High Risk” in data set [5] (Pharmaceutical, 3,600 mg/daily, oral).
